Literature values as cited in patent publication US20060136139A1, “Rapid computational identification of targets” (priority 2004, published 2006).

Legend:
PP2B = conditions: experimental value beside the computed energy
PP2A = conditions: experimental value beside the computed energy
PP2C = conditions: experimental value beside the computed energy
PP1 = conditions: experimental value beside the computed energy
[1] = at concentrations used in experimental inhibition studies

C=C1[C@@H](O)[C@@H]2O[C@]3(CC[C@H](/C=C/[C@@H](C)[C@@H]4CC(C)=C[C@@]5(O[C@H](C[C@@](C)(O)C(=O)O)CC[C@H]5O)O4)O3)CC[C@H]2O[C@@H]1[C@@H](O)C[C@H](C)[C@H]1O[C@@]2(CCCCO2)CC[C@H]1C [okadaic acid]
IC50 (PP2B): 5000 nM
IC50 (PP2A): 0.51 nM
IC50 (PP2C): > 10000 nM
IC50 (PP1): 42 nM

O=c1c(O)c(-c2ccc(O)c(O)c2)oc2cc(O)cc(O)c12 [quercetin]
aggregation of kinase inhibitor [1]: exhibit this behavior
